The source of these data is patent US7390833B2, “Method for treating ADAMTS-5-associated disease” (Wyeth, priority 2003, dated 2008).

Test [1] deals with T1, ADAMTS-4 (Agg-1) (Homo sapiens, UniProt O75173).
T1 sequence (O75173 213-837): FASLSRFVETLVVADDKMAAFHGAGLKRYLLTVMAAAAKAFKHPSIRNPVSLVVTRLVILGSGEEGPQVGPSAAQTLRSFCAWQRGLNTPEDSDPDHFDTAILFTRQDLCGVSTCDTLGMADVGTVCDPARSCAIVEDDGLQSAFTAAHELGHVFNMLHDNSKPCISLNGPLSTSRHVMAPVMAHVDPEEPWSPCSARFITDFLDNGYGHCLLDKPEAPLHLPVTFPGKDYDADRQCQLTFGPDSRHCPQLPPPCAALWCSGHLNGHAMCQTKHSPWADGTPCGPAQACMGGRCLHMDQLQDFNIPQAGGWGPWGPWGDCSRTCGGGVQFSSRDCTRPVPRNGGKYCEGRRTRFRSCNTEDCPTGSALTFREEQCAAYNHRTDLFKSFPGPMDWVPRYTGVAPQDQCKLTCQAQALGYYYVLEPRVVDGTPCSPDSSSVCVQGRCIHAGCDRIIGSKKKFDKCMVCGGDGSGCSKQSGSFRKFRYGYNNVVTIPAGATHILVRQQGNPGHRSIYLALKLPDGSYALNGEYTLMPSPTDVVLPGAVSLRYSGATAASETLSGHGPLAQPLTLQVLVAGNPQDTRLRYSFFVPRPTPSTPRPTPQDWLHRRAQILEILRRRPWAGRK
As to the kind of experiment: Inhibition of aggrecanase activity of ADAMTS-4 (Agg-1), continuous fluorescent quenched-peptide assay.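 Further: purified enzyme preincubated 10 min with inhibitor at room temperature, then initial substrate cleavage rate (RFU/min) read by fluorescence plate reader versus the uninhibited rate.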 The format is biochemical. As to conditions: concentration that inhibits 50% of the aggrecanase activity of ADAMTS-4 (Agg-1).
Method: A continuous assay was used in which the substrate upon which Agg-1 and Agg-1 acts is a synthetic peptide containing a fluorescent group that is quenched by energy transfer. […] The initial rates of the reaction are compared to the initial rates of reactions containing the biaryl sulfonamide compounds in order to assess the inhibitor potency of the compounds.
The assay buffer (pH 7.4) consisted of 50 mM Hepes, 100 mM NaCl, 5 mM CaCl2, 0.1% CHAPS, 5% glycerol. Each well of black polystyrene 96-well or 384-well plates contained a reaction consisting of assay buffer, purified Agg-2 (diluted with assay buffer), and varied concentrations of inhibitor (prepared by serial dilution in DMSO in 96-well polypropylene plates). The plates were then incubated at room temperature for 10 minutes. […] The initial rates of the cleavage reactions were determined at room temperature with a fluorescence plate reader immediately after substrate addition.

Test [2] has as its target T2, ADAMTS-5 (Agg-2), purified recombinant human Aggrecanase-2 (Ag2t-Phe628-Strep) (Homo sapiens, UniProt Q9UNA0).
T2 construct: the form used is denoted as Ag2t-Phe628-Strep (MW=41,737)
T2 sequence (Q9UNA0 262-628): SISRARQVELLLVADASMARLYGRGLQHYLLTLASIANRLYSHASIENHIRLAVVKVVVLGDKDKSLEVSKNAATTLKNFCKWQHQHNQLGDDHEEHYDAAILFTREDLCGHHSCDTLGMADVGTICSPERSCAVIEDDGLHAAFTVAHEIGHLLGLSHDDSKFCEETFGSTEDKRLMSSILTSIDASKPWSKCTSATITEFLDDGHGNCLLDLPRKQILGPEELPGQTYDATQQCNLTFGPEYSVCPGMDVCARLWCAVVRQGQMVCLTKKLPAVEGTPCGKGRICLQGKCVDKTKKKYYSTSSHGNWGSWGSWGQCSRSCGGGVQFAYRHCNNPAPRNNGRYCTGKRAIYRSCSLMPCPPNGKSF
The test is described as follows: Inhibition of aggrecanase activity of ADAMTS-5 (Agg-2), continuous fluorescent quenched-peptide assay (WAKB-5 substrate). The format is biochemical. As to conditions: concentration that inhibits 50% of the aggrecanase activity of ADAMTS-5 (Agg-2); substrate 25 μM, pH 7.4, room temperature. On the procedure:
The biaryl sulfonamide compounds of the present invention were tested for their ability to inhibit the aggrecanase activity of ADAMTS-4 (Agg-1) and ADAMTS-5 (Agg-2).
A continuous assay was used in which the substrate upon which Agg-1 and […] acts is a synthetic peptide containing a fluorescent group that is quenched by energy transfer. Cleavage of the peptide by the aggrecanase enzyme results in a large increase in fluorescence. The initial rates of the reaction are compared to the initial rates of reactions containing the biaryl sulfonamide compounds in order to assess the inhibitor potency of the compounds.
The source of enzyme in the assay is purified recombinant human Aggrecanase-2. More specifically, the form used is denoted as Ag2t-Phe628-Strep (MW=41,737). This form is truncated relative to the full-length enzyme and contains an affinity tag. Aliquots of this enzyme were stored at −80° C. in 25 mM Tris (pH 8.0), 100 mM NaCl, 5 mM CaCl2, 10 μM ZnCl2, 10% glycerol.
The substrate in the assay is a synthetic peptide that is designed after a portion of brevican, one of the naturally occurring substrates of Aggrecanase-2. […] WAKB-5 (mass=1740) was custom synthesized by AnaSpec, Inc. (San Jose, Calif.) and was >95% pure based on HPLC analysis. […] Stock solutions of the substrate were prepared with MilliQ water and aliquots were stored at −80° C. The concentration of this substrate stock was spectrophotometrically determined using the extinction coefficient at 354 nm of 18,172 M^−1 cm^−1.
The assay buffer (pH 7.4) consisted of 50 mM Hepes, 100 mM NaCl, 5 mM CaCl2, 0.1% CHAPS, 5% glycerol. Each well of black polystyrene 96-well or 384-well plates contained a reaction consisting of assay buffer, purified Agg-2 (diluted with assay buffer), and varied concentrations of inhibitor (prepared by serial dilution in DMSO in 96-well polypropylene plates). The plates were then incubated at room temperature for 10 minutes. The enzymatic reactions were initiated by adding substrate to a final concentration of 25 μM and were mixed by pipetting up and down. The initial rates of the cleavage reactions were determined at room temperature with a fluorescence plate reader immediately after substrate addition.
Analysis of the results was conducted by generating a plot of time vs. RFU for each sample. This was used as the “progress curve” of the reaction. The slope for the portion of the progress curve that is most linear was then determined. This slope (RFU/min) was used as the initial rate of the reaction. Plots of the inhibitor concentration vs. the initial cleavage rate were then fit to the following equation: y=Vmax*(1−(x^n/(K^n+x^n))), whereby x=inhibitor concentration, y=initial rate, Vmax=initial rate in the absence of inhibitor, n=slope factor, and K=IC50 for the inhibition curve.

Usually IC50 stands for the concentration at which inhibition is half-maximal. As to `CC(C)[C@@H](NS(=O)(=O)c1ccc(-c2ccc(COc3cc(C(F)(F)F)nc4c(C(F)(F)F)cccc34)cc2)cc1)C(=O)O`, the IC50 in test [1] stood at 0.2 µM; in test [2], 1.8 µM.
The like results for `COc1ccc(OCc2ccc(-c3ccc(S(=O)(=O)N[C@@H](C(=O)O)C(C)C)cc3)cc2)cc1` were, in that order, 1.6 µM and 10.7 µM.
